In patent publication US20050107451A1, “Methods for treating conditions, disorders, or diseases involving cell death” (priority 2001, published 2005):
Values joined by “and” are separate entries in the source; they are usually repeats but may differ in a detail not shown here. Identical values can stand only once. Like-named read-outs stand apart in the source and are kept apart here.

Tested on: neurons in brain slices
Type: cell-based
Settings: for NON-STROKE AVERAGE / surviving neurons, NON-STROKE: non-stroke brain slice; for NON-STROKE AVERAGE / STROKE AVG. / surviving neurons, NON-STROKE / surviving neurons, STROKE: 24 hrs exposure; for NON-STROKE AVERAGE / STROKE AVG.: average neuron count; for STROKE AVG. / surviving neurons, STROKE: stroke brain slice; for surviving neurons, NON-STROKE / surviving neurons, STROKE: single count; for neuroprotective properties: stroke and non-stroke brain slices, result in words
Text: A negative and positive control experiments were also run for comparison. In the positive control, a known neuroprotective gene and reporter gene (i.e., a green fluorescent protein) were shot into the stroke and non-stroke brain slices. In the negative control, only the reporter gene (i.e., a green fluorescent protein) was shot into the stroke and non-stroke brain slices. […]
A negative and positive control experiments were also run for comparison as described above for Example 1. […]
Two sets of brain slices were transfected with a plasmid containing a reporter gene (e.g. a green fluorescent protein). […] One of the sets of brain slices was treated under conditions to simulate stroke, and the other brain slice was a non-stroke control. Survival of neurons in the brain slices, as indicated by expression of the reporter molecule, was examined by direct neuron counts after 24 hrs. exposure to the compound.

Compound	NON-STROKE AVERAGE (0.781 uM)	STROKE AVG. (0.781 uM)	NON-STROKE AVERAGE (1.562 uM)	STROKE AVG. (1.562 uM)	NON-STROKE AVERAGE (3.125 uM)	STROKE AVG. (3.125 uM)	NON-STROKE AVERAGE (6.25 uM)	STROKE AVG. (6.25 uM)	NON-STROKE AVERAGE (12.5 uM)	STROKE AVG. (12.5 uM)	NON-STROKE AVERAGE (25 uM)	STROKE AVG. (25 uM)	NON-STROKE AVERAGE (50 uM)	STROKE AVG. (50 uM)	NON-STROKE AVERAGE (100 uM)	STROKE AVG. (100 uM)	surviving neurons, STROKE (100 uM)	neuroprotective properties	also measured
NC(C(=O)O)c1nnn[nH]1 (racemic) [(RS)-(Tetrazol-5-yl)glycine]	25.6	13.2	28.8	17.2	50.4	28.2	94.8	58.8	65.2	56.6	78	53.2	68.8	89	73.6	79.6	95 neurons and 76 neurons and 87 neurons and 66 neurons and 74 neurons	exhibits neuroprotective properties	surviving neurons, NON-STROKE (12.5 uM): 71 neurons and 61 neurons and 75 neurons and 56 neurons and 63 neurons; surviving neurons, NON-STROKE (100 uM): 72 neurons and 87 neurons and 64 neurons and 62 neurons and 83 neurons
COC1C(O)[C@H](O[C@H]2CC[C@]3(C)C4CC[C@]5(C)C(C6=CC(=O)OC6)CC[C@]5(O)C4CC[C@@H]3C2)OC(C)[C@@H]1O (stereo partly drawn) [Neriifolin, (3β,5β)-3-[(6-Deoxy-3-O-methyl-α-L-glucopyranosyl)oxyl]-14-hydroxycard-20(22)-enolide]	35	6.4	30.4	10	48.2	5.8	61	19.8	29.75	36.25	60.2	43.4	32.2	17.6	15.6	10.6		exhibits neuroprotective properties	surviving neurons, NON-STROKE (25 uM): 49 neurons and 66 neurons and 82 neurons and 42 neurons and 62 neurons
CC=C(C)C(=O)OC1CCC2(C)C3CCC4[C@]5(O)CC(O)[C@@]6(O)C(CN7CC(C)CCC7[C@@]6(C)O)[C@]5(O)C[C@@]42O[C@]13O (stereo partly drawn) [Cevadine, (Z)-4α,9-Epoxycevane-3β,4,12,14,16β,17,20-heptol 3-(2-methyl-2-butenoate)]	26.25	9.5	33.2	9	25.6	6.4	27	8.6	64	38.5	93.6	126	118	86.6	73	70	53 neurons and 78 neurons and 77 neurons and 56 neurons and 86 neurons	exhibits neuroprotective properties	surviving neurons, STROKE (3.125 uM): 9 neurons and 5 neurons and 6 neurons and 7 neurons
O=C1O[C@H]([C@@H](O)CO)C([O-])=C1O.[Na+] [Sodium Ascorbate, Sodium ascorbate, reference compound]											12.5	0.5	10	2	2.5			did not exhibit neuroprotective properties	NON-STROKE AVERAGE (0.3125 uM): 9.5; STROKE AVG. (0.3125 uM): 2.5; NON-STROKE AVERAGE (0.625 uM): 12.5; STROKE AVG. (0.625 uM): 0.5; NON-STROKE AVERAGE (1.25 uM): 10.5; STROKE AVG. (1.25 uM): 0.5; NON-STROKE AVERAGE (2.5 uM): 8; STROKE AVG. (2.5 uM): 0.5; NON-STROKE AVERAGE (5 uM): 19.5; STROKE AVG. (5 uM): 1; NON-STROKE AVERAGE (10 uM): 15.5; STROKE AVG. (10 uM): 2
